Results: patent US20230104936A1, “TRPML MODULATORS” (Casma Therapeutics, Inc., priority 2019, published 2023)

Test system: TFEB
Test: TFEB nuclear translocation assay, HeLa wt cells
Assay type: cell-based
Conditions: 2 hrs compound treatment, Table 1 does not say HeLa wt or TRPML1 KO
Summary of the method: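 AC50 derived from the ratio of nuclear to perinuclear ring (−5 μm) anti-TFEB immunofluorescence, imaged at ×20 over four fields per well. HeLa wt or TRPML1 KO cells were exposed to compounds for 2 hrs at 37° C, then PFA-fixed and counterstained with Hoechst.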

Structure (SMILES)	AC50 (Homo sapiens, HeLa, 2 h) [nM]	AC50 [nM]
C[C@@H]1CN(CC2(C)CCN(c3c(F)cccc3NS(=O)(=O)c3ccc(S(=O)(=O)N(C)C)cc3)CC2)C[C@H](C)O1 [Compound A-781, N4-[2-(4-{[(2R,6S)-2,6-dimethylmorpholin-4-yl]methyl}-4-methylpiperidin-1-yl)-3-fluorophenyl]-N1,N1-dimethylbenzene-1,4-disulfonamide]	≤ 2000	
C[C@@H]1COC[C@H](C)N1CC1CN(c2c(F)cccc2NS(=O)(=O)c2ccc(S(=O)(=O)N(C)C)cc2)C1 [Compound A-900, N4-[2-(3-{[(3R,5S)-3,5-dimethylmorpholin-4-yl]methyl}azetidin-1-yl)-3-fluorophenyl]-N1,N1-dimethylbenzene-1,4-disulfonamide]	≥ 10000	
CC1(C)CC2(CCN(c3ccccc3NS(=O)(=O)Cc3cccc(Cl)c3)CC2)CO1 [Compound A-678, 1-(3-chlorophenyl)-N-(2-{3,3-dimethyl-2-oxa-8-azaspiro[4.5]decan-8-yl}phenyl)methanesulfonamide]	≤ 2000	
COCS(=O)(=O)c1ccc(S(=O)(=O)Nc2ccccc2N2CCC(c3c(F)cccc3F)CC2)cc1 [Compound A-207, N-{2-[4-(2,6-difluorophenyl)piperidin-1-yl]phenyl}-4-methoxymethanesulfonylbenzene-1-sulfonamide]	≤ 2000	
CC1(C)CC2(CCN(c3ccccc3NS(=O)(=O)c3ccc4c(c3)CCC4)CC2)CO1 [Compound A-713, N-(2-{3,3-dimethyl-2-oxa-8-azaspiro[4.5]decan-8-yl}phenyl)-2,3-dihydro-1H-indene-5-sulfonamide]	≤ 2000	
CN(C)S(=O)(=O)c1ccc(S(=O)(=O)C(c2cccc(F)c2N2CCCCC2)C2CC2)cc1 (single isomer, unassigned) [Compound A-983, 4-((cyclopropyl(3-fluoro-2-(piperidin-1-yl)phenyl)methyl)sulfonyl)-N,N-dimethylbenzenesulfonamide]		≤ 2000
CCC1(N2CCCCC2)CCN(c2ccccc2NS(=O)(=O)c2ccc(S(=O)(=O)N(C)C)cc2)CC1 [Compound A-475, N4-(2-{4′-ethyl-[1,4′-bipiperidin]-1′-yl}phenyl)-N1,N1-dimethylbenzene-1,4-disulfonamide]	≤ 2000	
CC(c1cccc(F)c1N1CCOCC1)S(=O)(=O)c1ccc2c(c1)CCS2(=O)=O (single isomer, unassigned) [Compound A-967, 5-((1-(3-fluoro-2-morpholinophenyl)ethyl)sulfonyl)-2,3-dihydrobenzo[b]thiophene 1,1-dioxide]		≥ 10000
COCC1(C)CCN(c2ccccc2NS(=O)(=O)c2ccc3c(c2)OC(C)(C)O3)CC1 [Compound A-721, N-{2-[4-(methoxymethyl)-4-methylpiperidin-1-yl]phenyl}-2,2-dimethyl-2H-1,3-benzodioxole-5-sulfonamide]	≤ 2000	
CN(C)S(=O)(=O)c1ccc(S(=O)(=O)Nc2ccccc2N2CC3CC(C2)N3c2ccc(Cl)cc2F)cc1 [Compound A-30, N4-{2-[6-(4-chloro-2-fluorophenyl)-3,6-diazabicyclo[3.1.1]heptan-3-yl]phenyl}-N1,N1-dimethylbenzene-1,4-disulfonamide]	≤ 2000	
CN(C)S(=O)(=O)c1ccc(S(=O)(=O)Nc2ccccc2N2CC(O)(c3ccc(Cl)cc3F)C2)cc1 [Compound A-162, N4-{2-[3-(4-chloro-2-fluorophenyl)-3-hydroxyazetidin-1-yl]phenyl}-N1,N1-dimethylbenzene-1,4-disulfonamide]	2010 to 8000	
O=S(=O)(Nc1cccc(F)c1N1CCC(CN2C3CCC2COC3)CC1)c1ccc(C(F)(F)C2CC2)cc1 [Compound A-919, 4-(cyclopropyldifluoromethyl)-N-{3-fluoro-2-[4-({3-oxa-8-azabicyclo[3.2.1]octan-8-yl}methyl)piperidin-1-yl]phenyl}benzene-1-sulfonamide]	≤ 2000	
COCC1(C)CCN(c2ccccc2NS(=O)(=O)c2ccc(C3(C(F)(F)F)N=N3)cc2)CC1 [Compound A-740, N-{2-[4-(methoxymethyl)-4-methylpiperidin-1-yl]phenyl}-4-[3-(trifluoromethyl)-3H-diazirin-3-yl]benzene-1-sulfonamide]	8010 to 9990	
